This is an account of results in patent US9266922B2, “Antigen peptide and uses thereof” (priority 2011, dated 2016).

Test [1] concerns the target T1, HLA A*0201 on CEM.T2 cell line (Homo sapiens, UniProt P04439, D140Y/D185E/D98H/E176V/E277Q/G131W/G231S/I119V/I121R/I166T/I218V/L300P/L318F/N151K/N90K/P208A/P217A/Q86G/Q94H/R138H/R169H/T345S).
T1 construct: This cell line expresses HLA A*0201 but is deficient for TAP transporter; endogenous in cells; host or cells: CEM.T2 (T2) cell line
Put plainly: Cellular dissociation assay on CEM.T2 cells. The format is cell-based. Conditions: after Brefeldin A 1 h and 3 h in serum-free RPMI at 37° C. (4 h). On the procedure:
Cellular Dissociation Assay
After HLA-A2*0201 stabilization with peptides at 37° C. for 4 h, T2 cells were incubated for 1 h, in serum-free RPMI containing Brefeldin A (10 μg/ml), an inhibitor of the transport of secretory and lysosomal proteins [G. J. Strous et al., 1993]. After 3 washes, T2 cells were incubated for 3 h in serum-free RPMI at 37° C. Binding was then measured by FACS and after 4 h incubation. Percentage of Residual Binding (% RB) was calculated as follows: […]

Test [2] has as its target T2, HLA-A*0201 (Homo sapiens, UniProt P04439, D140Y/D185E/D98H/E176V/E277Q/G131W/G231S/I119V/I121R/I166T/I218V/L300P/L318F/N151K/N90K/P208A/P217A/Q86G/Q94H/R138H/R169H/T345S). Put plainly: biochemical. Conditions: peptide concentration giving 50% of optimal binding; 10^−4 to 10^−9 M, 21° C. for 18 h; read-out: Affinity (ED50). It counts as binding.
Test [3] concerns the target T1, HLA A*0201 on CEM.T2 cell line. In words: Cellular binding assay, HLA stabilization on CEM.T2 cells. Conditions: 100 μM peptide, 37° C. for 4 h, FACS anti HLA-A2; relative to HBV positive control peptide. The format is cell-based. On the procedure: The CEM.T2 cell line (T2) is defective in the processing of proteins for presentation by MHC class 1 molecules. This cell line expresses HLA A*0201 but is deficient for TAP transporter. T2 is classically used to assess the Peptide/HLA-A*0201 Complex Stability[H. W. Nijman et al., 1993]
For HLA-A2*0201 stabilization, T2 cells (2×10^5/well) were incubated in serum-free RPMI (Gibco®-France) with 100 μM of selected peptide, at 37° C. for 4 h. Cells were washed two times with PBS supplemented with 1% BSA and stained with fluorescein isothiocyanate-conjugated anti HLA-A2 (Clone BB7.2) (BD Bioscience Pharmingen-France-) at 4° C. for 45 min. After 3 washes, cells were fixed in PBS supplemented with 2% paraformaldehyde and analyzed by FACS (FACScan, BD Bioscience). The percentage of peptide binding was calculated as follows: % Binding={(MFI peptide sample−MFI Neg control)/(MFI Pos control−MFI Neg control)}×100
Negative control was done without peptide.

The target of test [4] is T2, HLA-A*0201. Put plainly: iScore calculation (iTOPIA system software). Conditions: multiparametric score of binding, off-rate and affinity.
Test [5] deals with T2, HLA-A*0201. In words: iTOPIA EDS MHC peptide binding assay. Conditions: HLA-A*0201 monomer, relative to positive control peptide, 21° C. for 18 h. The text has this: MHC peptide binding assay using iTOPIA EDS
Microtiter 96 well plates containing HLA class I MHC monomer loaded with the human β2-microglobulin and a “placeholder” peptide were used to evaluate peptide binding, affinity, and off-rate.
The 502 nectin4 nonapeptides were first evaluated for their ability to bind to each MHC molecule in the peptide binding assay. In this assay, the placeholder peptides were stripped from the MHC class I monomer complexes coated on plastic, which leaves the MHC class I heavy chain available as a binding partner for candidate peptides in the presence of human β2-microglobulin.
Peptide binding was performed at 21° C. for 18 h. Revelation was done using an anti HLA-ABC-FITC mAb that binds to refolded MHC complex conformation. The relative fluorescent intensity was read using a fluorimeter (Molecular Devices, SpectraMax Gemini, Sunnyvale, Calif., USA).
Peptides with a binding>30% of the positive control peptide were selected as “binder” and subsequently analyzed for affinity (ED50) and off-rate (T1/2).

Residues, ends and D or L forms follow the SMILES beside them.

Take `CSCC[C@H](NC(=O)[C@H](C)N)C(=O)N[C@@H](CC(C)C)C(=O)N[C@@H](CCCCN)C(=O)N[C@@H](CS)C(=O)N[C@@H](CC(C)C)C(=O)N[C@@H](CO)C(=O)N[C@@H](CCC(=O)O)C(=O)NCC(=O)O` [Peptide 266] (H-AMLKCLSEG-OH; N-terminus and C-terminus assumed): the “CEM.T2 % Residual Binding” value in test [1] turned out to be 39%. Besides, at HLA-A*0201 [2], the EC50 came out at 700 nM. Also, the “CEM.T2 % Binding” value in test [3] was 31%. Besides, the iScore on HLA-A*0201 [4] is listed as 0.667. For the same compound, the “% Binding” value at HLA-A*0201 [5] turned out to be 74%.

As for `CC(C)C[C@H](N)C(=O)N[C@H](C(=O)N[C@@H](CO)C(=O)N[C@@H](C)C(=O)N[C@@H](CO)C(=O)N[C@H](C(=O)N[C@H](C(=O)N[C@H](C(=O)N[C@H](C(=O)O)C(C)C)C(C)C)C(C)C)C(C)C)C(C)C` [Peptide 345] (H-LVSASVVVV-OH; N-terminus and C-terminus assumed), in test [1], the “CEM.T2 % Residual Binding” value is given as 0%. For the same compound, on HLA-A*0201 [2], the EC50 came out at 60 nM. Moreover, the “CEM.T2 % Binding” value in test [3] is given as 11%. The iScore on HLA-A*0201 [4] is reported as 0.626. The “% Binding” value at HLA-A*0201 [5] worked out at 51%.

With `CC(C)[C@H](NC(=O)CNC(=O)[C@@H](NC(=O)[C@@H](NC(=O)[C@@H](NC(=O)[C@@H](NC(=O)[C@H](CO)NC(=O)[C@H](C)NC(=O)[C@@H](N)CO)C(C)C)C(C)C)C(C)C)C(C)C)C(=O)O` [Peptide 347] (H-SASVVVVGV-OH; N-terminus and C-terminus assumed), the “CEM.T2 % Residual Binding” value in test [1] was 0%. At HLA-A*0201 [2], the EC50 was determined as 200 nM. In addition, the “CEM.T2 % Binding” value in test [3] was found to be 40%. Further, the iScore at HLA-A*0201 [4] is listed as 0.708. The “% Binding” value on HLA-A*0201 [5] came out at 64%.

`CC[C@H](C)[C@H](NC(=O)[C@@H](NC(=O)CN)C(C)C)C(=O)N[C@@H](C)C(=O)N[C@@H](C)C(=O)N[C@@H](CC(C)C)C(=O)N[C@@H](CC(C)C)C(=O)N[C@@H](Cc1ccccc1)C(=O)N[C@@H](CS)C(=O)O` [Peptide 354] (H-GVIAALLFC-OH; N-terminus and C-terminus assumed): the “CEM.T2 % Residual Binding” value in test [1] was determined as 0%. Moreover, the EC50 at HLA-A*0201 [2] was 90 nM. In addition, the “CEM.T2 % Binding” value in test [3] turned out to be 10%. Moreover, the iScore on HLA-A*0201 [4] is on record as 0.845. The “% Binding” value at HLA-A*0201 [5] came out at 61%.

For the compound `CC[C@H](C)[C@H](NC(=O)[C@@H](N)C(C)C)C(=O)N[C@@H](C)C(=O)N[C@@H](C)C(=O)N[C@@H](CC(C)C)C(=O)N[C@@H](CC(C)C)C(=O)N[C@@H](Cc1ccccc1)C(=O)N[C@@H](CS)C(=O)N[C@@H](CC(C)C)C(=O)O` [Peptide 355] (H-VIAALLFCL-OH; N-terminus and C-terminus assumed), the “CEM.T2 % Residual Binding” value in test [1] was found to be 24%. Moreover, the EC50 at HLA-A*0201 [2] came out at 30 nM. Moreover, the “CEM.T2 % Binding” value in test [3] was found to be 18%. The iScore at HLA-A*0201 [4] is 0.888. On HLA-A*0201 [5], the “% Binding” value is given as 59%.

On to `CC(C)C[C@H](NC(=O)[C@H](C)NC(=O)[C@H](C)N)C(=O)N[C@@H](CC(C)C)C(=O)N[C@@H](Cc1ccccc1)C(=O)N[C@@H](CS)C(=O)N[C@@H](CC(C)C)C(=O)N[C@@H](CC(C)C)C(=O)N[C@H](C(=O)O)C(C)C` [Peptide 357] (H-AALLFCLLV-OH; N-terminus and C-terminus assumed), for which the “CEM.T2 % Residual Binding” value in test [1] is 18%. The EC50 on HLA-A*0201 [2] turned out to be 100 nM. Also, in test [3], the “CEM.T2 % Binding” value came out at 15%. Also, on HLA-A*0201 [4], the iScore is listed as 0.619. Besides, on HLA-A*0201 [5], the “% Binding” value stood at 56%.

On to `CC(C)C[C@H](NC(=O)[C@H](C)N)C(=O)N[C@@H](CC(C)C)C(=O)N[C@@H](Cc1ccccc1)C(=O)N[C@@H](CS)C(=O)N[C@@H](CC(C)C)C(=O)N[C@@H](CC(C)C)C(=O)N[C@H](C(=O)N[C@H](C(=O)O)C(C)C)C(C)C` [Peptide 358] (H-ALLFCLLVV-OH; N-terminus and C-terminus assumed), for which, in test [1], the “CEM.T2 % Residual Binding” value worked out at 26%. For the same compound, the EC50 at HLA-A*0201 [2] came out at 200 nM. The “CEM.T2 % Binding” value in test [3] worked out at 26%. Further, at HLA-A*0201 [4], the iScore is recorded as 0.71. Further, the “% Binding” value on HLA-A*0201 [5] is on record as 53%.

Regarding `CC(C)C[C@H](NC(=O)[C@H](CS)NC(=O)[C@H](Cc1ccccc1)NC(=O)[C@H](CC(C)C)NC(=O)[C@@H](N)CC(C)C)C(=O)N[C@@H](CC(C)C)C(=O)N[C@H](C(=O)N[C@H](C(=O)N[C@H](C(=O)O)C(C)C)C(C)C)C(C)C` [Peptide 359] (H-LLFCLLVVV-OH; N-terminus and C-terminus assumed), the “CEM.T2 % Residual Binding” value in test [1] came out at 23%. Further, the EC50 on HLA-A*0201 [2] was 500 nM. Further, in test [3], the “CEM.T2 % Binding” value is given as 7%. The iScore at HLA-A*0201 [4] is reported as 0.674. Further, the “% Binding” value on HLA-A*0201 [5] is recorded as 67%.

For the compound `CC(C)C[C@H](NC(=O)[C@@H](NC(=O)[C@H](CO)NC(=O)[C@H](Cc1ccc(O)cc1)NC(=O)[C@H](CO)NC(=O)[C@@H](N)CCCNC(=N)N)[C@@H](C)O)C(=O)N[C@H](C(=O)N[C@H](C(=O)N[C@H](C(=O)O)C(C)C)[C@@H](C)O)[C@@H](C)O` [Peptide 443] (H-RSYSTLTTV-OH; N-terminus and C-terminus assumed), the “CEM.T2 % Residual Binding” value in test [1] came to 0%. Besides, on HLA-A*0201 [2], the EC50 is 300 nM. In addition, the “CEM.T2 % Binding” value in test [3] came out at 37%. Also, the iScore on HLA-A*0201 [4] was 0.521. Further, the “% Binding” value on HLA-A*0201 [5] worked out at 68%.
